# Data published in a melting point compilation (Tetko et al.; mined from patent text by program, amines drawn as free bases though some values may be those of a salt).
row,Compound,melting point
1,ClC(Cl)(Cl)SNc1nc(C(Cl)(Cl)Cl)ns1,180 °C
2,CNc1nc(CO)ccc1C,87 °C
3,CCCCOC(=O)C(NC(=O)OC(C)(C)C)c1c[nH]c2ccccc12 (stereo not given),127 to 128 °C
4,N#Cc1cc(-c2cnccn2)c[nH]c1=O,250 °C
5,COC(=O)c1cc(-n2c(OC)nc(C(F)(F)F)cc2=O)c(F)cc1Cl,115 to 117 °C
6,O=C(O)c1cc(Cl)c2cccnc2c1O,285 to 287 °C
7,Cc1nc(Nc2ccc(Cl)cc2)sc1C(=O)O,> 250 °C
8,CCCOc1ccc2c(c1)C(=O)CCO2,50 to 52 °C
9,O=C1C=CC(=O)c2nccnc21,172 to 173 °C
10,Cc1cc(O)c2c(c1)C(C)(C)CC2(C)C,66 °C
11,O=NN(CC(=O)O)C([PH](=O)Oc1ccccc1)[PH](=O)Oc1ccccc1 (stereo not given),40 to 44 °C
12,O=C1C=c2c(c3c4ccccc4sc3c3[nH]c4ccccc4c23)=N1,> 300 °C
13,O=[N+]([O-])c1c(Cl)c(Cl)cc2nc(Cl)c(Cl)nc12,118 to 120 °C
14,O=C(NCC(F)(F)F)C1(CCCc2ccccc2)c2ccccc2-c2ccccc21,86 to 88 °C
15,CC(C)=CCn1c(-c2c(F)cccc2F)nc2c(C)cccc21,78 to 79 °C
16,CC(C)(C(=O)O)n1c(=O)[nH]c2cc(Cl)ccc2c1=O,260 to 263 °C
17,O=C1c2ccccc2-n2cnc(I)c2[C@@H]2CCCN12,222 to 223 °C

# Second part, the compound after the results:
row,melting point,Compound
1,210 to 211 °C,Cc1cccc(NC(=O)Nc2c(-c3ccccc3Cl)c3cc(C)c(C)cc3n(C)c2=O)c1
2,117 to 121 °C,CCOC(=O)C1CN(S(=O)(=O)c2ccc3cc(Br)ccc3c2)CCN1C(=O)C1CCN(c2ccncc2)CC1 (stereo not given)
3,157 to 159 °C,C/C(=N\OCCOc1ccc(C(=O)O)c(O)c1)c1ccc(C(C)(C)C)cc1
4,246 to 248 °C,NCc1cccnc1C1CCN(c2cc3c(cc2F)c(=O)c(C(=O)O)cn3C2CC2)C1 (stereo not given)
5,240 to 244 °C,O=C(Nc1ccc(-c2c[nH]c(=O)cn2)cc1)OCc1ccccc1
6,106 to 113 °C,CNc1ccc(-c2ncn(-c3ccc(C(F)(F)F)cc3)n2)cc1
7,125 to 128 °C,COc1ccc(COc2ccc3cc(C(C)C(=O)O)ccc3c2)cc1OC1CC2CCC1C2 (stereo not given)
8,116 to 117 °C,O=C(c1ccc(S)cc1)c1ccc([N+](=O)[O-])cc1
9,155 to 158 °C,COc1ccc(C(=O)c2cc3cc(OC)ccc3[nH]2)cc1
10,86 °C,COc1cc(F)ccc1-c1ccc(S(=O)(=O)N2c3ccccc3CC2C(=O)NCCOc2ccc(C(=O)OC(C)(C)C)cc2)cc1 (stereo not given)
11,254 to 256 °C,O=S(=O)(Nc1nc2ncccn2n1)c1ccccc1Cl
12,108 to 110 °C,Cn1cccc1C(=O)c1cc([N+](=O)[O-])ccc1Cl
13,> 205 °C,O=C(O)c1c[nH]c(Br)c1-c1ccc(Cl)cc1
14,246 °C,CCOC(=O)c1c(N2CCN(C(=O)c3ccco3)CC2)c2sccc2n(CC(=O)c2ccccc2)c1=O
15,149 °C,O=c1[nH]c2ccccc2n1CCCN1CCC(OC(c2ccccc2)c2ccccc2)CC1
16,70 °C,C=C(C)C(=O)OCCCOc1ccc(-c2cc(OC(=O)C(=C)C)cc(-c3ccc(OCCOC(=O)C(=C)C)cc3)c2)cc1F
17,86 to 88 °C,CCOC(=O)C(C)OCc1cc2nc(Cl)ccc2n1S(=O)(=O)c1ccc2nc(N)sc2c1 (stereo not given)
18,199 to 201 °C,COc1ccc(CN2C(=O)C(O)(c3cc4c(C)noc4cc3O)c3ccccc32)cc1 (stereo not given)
19,106 to 107 °C,O=C(O)COc1cccc(CCc2nc(-c3cccs3)c(-c3cccs3)o2)c1
20,85 to 89 °C,OCc1ccc2c(n1)COC(c1ccccc1)O2 (stereo not given)
21,174 °C,O=C1OC(CO)CN1c1ccc2ccccc2c1 (stereo not given)
22,189 to 191 °C,c1ccc2c(c1)c(N1CCOCC1)nc1c(-c3nc(C4CC4)no3)ncn12
23,164 to 165 °C,COCCOCCOC(=O)C1C=Nc2c(ccc3cccnc23)C1=O (stereo not given)
